Test results from PubChem BioAssay (NCI).
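At the GI50, growth is halved. The concentration for full growth arrest is given as TGI.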

Experiments:
Assay in all cases: NCI-60 cell line screen, 384-well format
[1] = test system: CAKI-1 renal
[2] = test system: MOLT-4 leukemia
[3] = test system: MDA-MB-231 breast
[4] = test system: MCF7 breast
[5] = test system: DU-145 prostate
[6] = test system: MALME-3M melanoma
[7] = test system: SK-MEL-28 melanoma
[8] = test system: RPMI-8226 leukemia
[9] = test system: TK-10 renal
[10] = test system: UO-31 renal
[11] = test system: RXF 393 renal
[12] = test system: NCI-H23 lung
[13] = test system: M14 melanoma
[14] = test system: NCI-H460 NSCLC
[15] = test system: ACHN renal
[16] = test system: HS 578T breast
[17] = test system: A498 renal
[18] = test system: SNB-75 CNS
[19] = test system: KM12 colon
[20] = test system: SN12C renal
[21] = test system: IGROV1 ovarian
[22] = test system: HCT-15 colon
[23] = test system: NCI-H226 lung
[24] = test system: EKVX NSCLC
[25] = test system: SK-OV-3 ovarian
[26] = test system: UACC-257 melanoma
[27] = test system: OVCAR-8 ovarian
[28] = test system: HL-60(TB) leukemia
[29] = test system: OVCAR-5 ovarian

In the case of `COc1cc2c(Oc3ccc4[nH]c(C)cc4c3F)ccnc2cc1OCC1(N)CC1`, the TGI [1] is reported as 2.31 µM, the GI50 [2] is reported as 0.223 µM and the TGI [2] is reported as 0.419 µM. It also gave a GI50 [3] of 1.17 µM, a TGI [3] of 3.54 µM and a GI50 [4] of 0.359 µM. The TGI [4] was 7.73 µM, the GI50 [5] was 2.16 µM and the TGI [5] was 7.36 µM. It also gave a GI50 [6] of 0.375 µM, a TGI [6] of 1.46 µM and a GI50 [7] of 0.828 µM. It also gave a TGI [7] of 2.08 µM, a GI50 [8] of 0.753 µM and a TGI [8] of 1.99 µM. The GI50 [9] was 1.6 µM, the TGI [9] was 3.32 µM and the GI50 [10] was 1.3 µM. The TGI [10] was 2.76 µM, the GI50 [11] was 0.648 µM and the TGI [11] was 2.09 µM. It also gave a GI50 [12] of 1.03 µM, a TGI [12] of 2.52 µM and a GI50 [13] of 0.519 µM. For the same molecule, the TGI [13] was 1.66 µM, the GI50 [14] was 0.714 µM and the TGI [14] was 2.03 µM. It also gave a GI50 [15] of 1.16 µM, a TGI [15] of 3.44 µM and a GI50 [16] of 0.294 µM. The TGI [16] was 1.04 µM, the GI50 [17] was 0.4 µM and the TGI [17] was 1.69 µM. The GI50 [18] was 0.314 µM, the TGI [18] was 1.07 µM and the GI50 [19] was 0.474 µM. The TGI [19] was 1.74 µM, the GI50 [20] was 1.12 µM and the TGI [20] was 2.86 µM. The GI50 [21] was 1.2 µM, the TGI [21] was 4.35 µM and the GI50 [22] was 0.493 µM. The TGI [22] was 1.76 µM, the GI50 [23] was 1.11 µM and the TGI [23] was 3.02 µM. For the same molecule, the GI50 [24] was 0.867 µM, the TGI [24] was 2.85 µM and the GI50 [25] was 0.539 µM. It also gave a TGI [25] of 1.92 µM, a GI50 [26] of 0.427 µM and a TGI [26] of 1.29 µM. It also gave a GI50 [27] of 1.51 µM, a TGI [27] of 3.27 µM and a GI50 [28] of 0.24 µM. For the same molecule, the TGI [28] was 0.463 µM, the GI50 [29] was 1.92 µM and the TGI [29] was 3.87 µM.
